Reference: BindingDB's records for doi:10.1021/jm980637h (Japan Energy, 1999)

target: T1, Dimer of Gag-Pol polyprotein [489-587] (Human immunodeficiency virus 1, UniProt P12497); assay: Protease Inhibition Assay; settings: pH 6; 37 °C
T1 construct: 489-587
Description: Sensitivity of HIV-1 protease activity to protease inhibitors was determined by a peptide substrate cleavage assay. Substrates and cleavage fragments were separated by reverse-phase HPLC, detected by absorbance at 215 nm, and quantified by comparison with a synthetic product standard.

In order of rising Ki:
1. CSC[C@H](NC(=O)COc1cccc2cnccc12)C(=O)N[C@@H](Cc1ccccc1)[C@H](O)C(=O)N1CSC(C)(C)[C@H]1C(=O)NC(C)(C)C  0.088 nM
2. CCc1c(O)cccc1C(=O)N[C@@H](Cc1ccccc1)[C@H](O)C(=O)N1CSC(C)(C)[C@H]1C(=O)NCc1ccccc1C [(R)-N-(2-Methylbenzyl)-3-[(2S,3S)-3-(2-ethyl-3-hydroxybenzoyl)amino-2-hydroxy-4-phenylbutanoyl]-5,5-methyl-1,3-thiazolidine-4-carboxamide]  0.16 nM
3. CSC[C@H](NC(=O)COc1cccc2cnccc12)C(=O)N[C@@H](Cc1ccccc1)[C@H](O)C(=O)N1CSC[C@H]1C(=O)NC(C)(C)C [Kynostatin 272]  0.74 nM
